Source: ChEMBL document CHEMBL1125963, “Triply-convergent synthesis of a homochiral 3,3-dimethyl, 15-cyclohexyl prostacyclin analog” (Bioorg Med Chem Lett, 1991)

Tests used:
[1] = organism: Homo sapiens; assay: Concentration required to inhibit collagen-induced platelet aggregation by 50 % (>10 uM); IA means inactive; type: functional
[2] = organism: Homo sapiens; assay: Concentration required to inhibit collagen-induced platelet aggregation by 50 %; type: functional

SMILES | IC50 [1] | IC50 [2]
O=C(O)COc1cccc2c1C[C@H]1C[C@@H](O)[C@H](CC[C@@H](O)C3CCCCC3)[C@H]1C2 | Not Active | 
CC(C)(C/C=C1\C[C@H]2C[C@@H](O)[C@H](C#C[C@@H](O)C3CCCCC3)[C@H]2C1)CCO | Not Active | 
CC(C)(C/C=C1\C[C@H]2C[C@@H](O)[C@H](C#C[C@H](O)C3CCCCC3)[C@H]2C1)CC(=O)O |  | 480 nM
CCCCC[C@H](O)/C=C/[C@@H]1[C@H]2C/C(=C/CCCC(=O)O)C[C@H]2C[C@H]1O | Not Active | 
CCC#CC[C@H](C)[C@H](O)C#C[C@@H]1[C@H]2C/C(=C/COCC(=O)O)C[C@H]2C[C@H]1O [CICAPROST] | Not Active | 
